Experimental data reported in PMC6934184, “Selective DNA-PKcs inhibition extends the therapeutic index of localized radiotherapy and chemotherapy” (The Journal of Clinical Investigation, 2019).

Target: T1, CDK7/cyclin H/MNAT1 (Homo sapiens, UniProt P50613)
T1 construct: purchased Thermo Fisher Scientific (Life Technologies) SelectScreen
Assay: SelectScreen Adapta
Format: biochemical
Method in brief: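 NU5455 was profiled across the SelectScreen Broad panel of kinase activity and binding assays. Z'LYTE reactions such as CSF1R ran at apparent Km ATP, while the Adapta CAMK1 assay used ATP listed as 10. Values are given as percent.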

T1 sequence (P50613 whole entry): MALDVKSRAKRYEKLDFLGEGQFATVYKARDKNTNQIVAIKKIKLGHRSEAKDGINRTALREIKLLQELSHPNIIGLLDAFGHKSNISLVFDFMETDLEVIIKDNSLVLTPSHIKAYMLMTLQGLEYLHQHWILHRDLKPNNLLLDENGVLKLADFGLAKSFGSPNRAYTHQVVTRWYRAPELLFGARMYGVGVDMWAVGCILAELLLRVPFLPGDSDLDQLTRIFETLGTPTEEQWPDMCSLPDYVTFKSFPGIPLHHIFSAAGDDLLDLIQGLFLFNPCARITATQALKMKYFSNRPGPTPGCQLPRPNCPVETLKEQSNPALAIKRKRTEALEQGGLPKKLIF
T1 sequence (P51946 whole entry partner): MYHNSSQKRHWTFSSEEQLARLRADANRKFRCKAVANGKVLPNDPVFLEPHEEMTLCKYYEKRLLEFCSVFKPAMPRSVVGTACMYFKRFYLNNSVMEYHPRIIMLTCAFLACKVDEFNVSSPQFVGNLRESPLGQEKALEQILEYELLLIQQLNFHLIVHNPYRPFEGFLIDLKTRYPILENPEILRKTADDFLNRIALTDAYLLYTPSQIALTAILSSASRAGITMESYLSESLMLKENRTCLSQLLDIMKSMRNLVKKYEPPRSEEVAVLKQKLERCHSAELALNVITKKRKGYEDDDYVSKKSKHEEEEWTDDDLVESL
T1 sequence (P51948 whole entry partner): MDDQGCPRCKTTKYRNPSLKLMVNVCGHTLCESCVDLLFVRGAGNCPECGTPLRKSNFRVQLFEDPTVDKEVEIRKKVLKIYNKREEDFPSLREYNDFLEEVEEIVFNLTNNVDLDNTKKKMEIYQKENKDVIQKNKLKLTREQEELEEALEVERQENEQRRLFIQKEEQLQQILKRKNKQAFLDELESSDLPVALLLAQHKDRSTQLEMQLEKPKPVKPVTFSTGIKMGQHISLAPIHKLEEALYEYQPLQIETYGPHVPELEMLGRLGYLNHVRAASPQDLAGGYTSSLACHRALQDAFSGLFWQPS

Which inhibition at 1 µM does the source give for `CN(C(=O)CN1CCOCC1)c1ccc2sc3c(-c4cccc5c(=O)cc(N6CC7CCC(C6)O7)oc45)cccc3c2c1` [NU5455] here?
The inhibition at 1 µM was 5.3%.
